Values of other authors, collected in US8685449B2, “Pharmaceutical composition with anti-obesity activity comprising a premixture of pure orlistat and preparation process” (Laboratorios Bago S.A., priority 2010, dated 2014).

Conditions: particularly in a wet environment and at a temperature above 35° C., and inclusive in a dry environment

SMILES: CCCCCCCCCCC[C@@H](C[C@@H]1OC(=O)[C@H]1CCCCCC)OC(=O)[C@H](CC(C)C)NC=O [orlistat, (−) tetrahydrolipstatin]
- stability (hydrolisis and thermal degradation): susceptible to hydrolisis and thermal degradation
